PMC8711299, “Rational Designed Hybrid Peptides Show up to a 6-Fold Increase in Antimicrobial Activity and Demonstrate Different Ultrastructural Changes as the Parental Peptides Measured by BioSAXS” (Frontiers in Pharmacology, 2021)
Values after ≈ are worked out from the molar mass of the structure shown. Positions of bridges follow the written chain, without caps; N, C: chain ends. Residues, ends and D or L forms follow the SMILES beside them. No end group written: not given here.

Legend:
E. coli [1] = assay: MIC of standard antibiotics against E. coli (BioSAXS comparison); type: cell-based, Escherichia coli; details: used at 3x MIC, 240 min incubation, for BioSAXS
Text: To discuss the obtained results in the context of conventional antibiotics, compared the peptides to three antibiotics, tigecycline (bacteriostatic activity by binding to the […] ribosomal subunit of the bacterial ribosome), chloramphenicol (bacteriostatic activity by binding to the […] ribosomal subunit of the bacterial ribosome), and rifampicin (bactericidal activity by inhibiting the DNA-dependent RNA polymerase activity), see Figure 5. […] As the antibiotics have slower kill kinetics than the AMPs, 240 min incubation time was used. […] The PCA values of Bac5-v291 and hyP7B5GK deviate strongly from the untreated controls and the standard antibiotics. The PCA values of peptides hyP7B5Cys and optP7 are nearest to chloramphenicol.

human red blood cells = type: cell-based; details: for HC50 (peptide concentration needed to induce haemolysis in human red blood cells at 50%): red cells of human, 1 h
Protocol: The protocol to determine the haemolytic activity of the peptides and HC50 values were described previously ([Grimsey et al., 2020]). Briefly, human blood was washed and diluted with PBS (4% v/v) and incubated with a pre-made dilution series of the peptides and incubated for 1 h at 37 C. The 100% haemolysis value was achieved by incubation with Triton X (1% final concentration). Haemoglobin was measured at 414 and 546 nm using an ELISA plate reader. HC50 values were determined using the Prism software (GraphPad).

E. coli [2] = type: cell-based, Escherichia coli
Text: (§1) In this project the following bacterial strains were used: 1) methicillin-resistant Staphylococcus aureus (S. aureus) HO 5096 0412 (a neonatal infection isolate, isolated in Ipswich, England in 2005, obtained from Jody Lindsay (St. George’s, University of London), 2) Escherichia coli (E. coli, UB1005, F-, LAM-, gyrA37, relA1, spoT1, metB1, LAMR) used solely for transmission electron microscopy, E. coli (ATCC 25922), 3) Pseudomonas aeruginosa PAO1 obtained from Dr Robert E.W. Hancock (Department of Microbiology and Immunology, University of British Columbia).
(§2) Mueller-Hinton broth (MHb) (Merck, Life Science UK Limited, Dorset, UK)) was prepared concurring to the manufacturer’s directions was used to grow the bacterial strains. Liquid bacterial cultures were incubated at 37°C for 18–20 h on a shaker, bacterial culture on solid media was incubated for 18–24 h at 37°C.
(§3) A broth microdilution assay was applied to determine the minimum inhibitory concentrations (MIC) in MHb for both, using 5 × 10^5 CFU/ml (MICs in Table 1) and 10^8 CFU/ml (BioSAXS and electron microscopy, values in Table 2). A detailed description of the method can be found in the open-source publication by von Gundlach et al. (von Gundlach et al., 2019a).

[3] = test system: methicillin-resistant Staphylococcus aureus HO 5096 0412 (MRSA); type: cell-based; details: methicillin-resistant HO 5096 0412
Text: as §1, §2, §3

[4] = test system: Pseudomonas aeruginosa PAO1; type: cell-based
Text: as §1, §2, §3

E. coli [5] = type: cell-based, Escherichia coli; remark: listed apart in the source
Text: as §3
Quite early on in our drug development process, we have selected optP7 over optP1 for a slightly better MIC against P. aeruginosa. Further investigations were performed with peptide optP7 only. Firstly, we investigated E. coli cells treated with optP7 by transmission electron microscopy (TEM) to get a better understanding of the mode of action/ultrastructural changes of the peptides on E. coli, see Figure 1. In order to achieve a sufficient number of bacteria to form a pellet, a bacterial concentration of 1 × 10^8 CFU/ml was used. […] The outer membrane of E. coli of the untreated sample appears thick and relatively smooth (Figure 1, arrow 1), whereas for the peptide treated one, it was damaged (Figure 1, arrow 2) and blebbing was visible (Figure 1, arrow 3), where lipopolysaccharides (LPS) form small vesicles and are shed from the cell. The inner membrane for both, the untreated control (Figure 1A, arrow 4), and the peptide treated E. coli (Figure 1, arrow 5) seemed to remain intact and no spillage of the cytosol content was observed. The DNA in untreated bacterial cells comprised dispersed fibrils in the cytoplasm, see Figure 1, dotted lines. The bacterial DNA is concentrated in a ‘DNA–plasm’ called the nucleoid ([Ohniwa et al., 2007]). The peptide optP7 creates an enlarged and spherical nucleoid, dotted line in Figure 1., typically seen in DNA-dependent RNA polymerase inhibitors and protein synthesis inhibitors. Compared to the untreated bacteria (Figure 1, arrow 6), the peptide treated ones show more pronounced granular substructures (Figure 1, arrow 7) in the cytosol could indicate aggregation of cytosolic proteins. These substructures were observed before using small AMPs ([Von Gundlach et al., 2016a], [2019]).
Small-angle X-ray scattering for biological samples (BioSAXS) on the P12 beamline can be used to measure ultrastructural changes within the bacteria in the range between 2 and 157 nm, from which we used the range from 20 to 120 nm for analysis of the bacteria after treatment with the antimicrobial peptides. […] The MICs for the selected peptides against E. coli at 1 × 10^8 CFU/ml were determined (Table 2). […] To quantify the subtle changes between the different treatments we used a PCA analysis using SciXMiner and the “Peptide Extension” tool ([Mikut, 2010]; [Mikut et al., 2017]) (Figure 4). […]

Row | Compound | MIC against E. coli (standard antibiotics) (E. coli [1]) [µg/mL] | Therapeutic window HC50/MIC(MRSA) (human red blood cells) | HC50 (peptide concentration needed to induce haemolysis in human red blood cells at 50%) (human red blood cells) [µM] | MIC E. coli (E. coli [2]) [µM] | MIC MRSA [3] [µM] | MIC PA (P. aeruginosa) [4] [µM] | MIC E. coli at 1 × 10^8 CFU/ml (E. coli [5]) [µM]
1 | O=C(N[C@H](CO)[C@H](O)c1ccc([N+](=O)[O-])cc1)C(Cl)Cl [chloramphenicol] | 8 | – | – | – | – | – | –
2 | CC[C@H](C)[C@H](NC(=O)[C@H](Cc1c[nH]c2ccccc12)NC(=O)[C@H](CCCNC(=N)N)NC(=O)[C@@H](NC(=O)[C@H](CCCNC(=N)N)NC(=O)[C@H](CCCNC(=N)N)NC(=O)[C@H](CCCCN)NC(=O)CNC(=O)[C@H](CCCCN)NC(=O)[C@@H]1CSSC[C@H](NC(=O)[C@H](CCCCN)NC(=O)CNC(=O)[C@H](CCCCN)NC(=O)[C@H](CCCNC(=N)N)NC(=O)[C@H](Cc2c[nH]c3ccccc23)NC(=O)[C@H](Cc2ccccc2)NC(=O)[C@@H]2CCCN2C(=O)[C@@H]2CCCN2C(=O)[C@H](CCCNC(=N)N)NC(=O)[C@@H](NC(=O)[C@@H]2CCCN2C(=O)[C@H](CCCNC(=N)N)NC(=O)[C@H](CCCNC(=N)N)NC(=O)[C@H](CCCNC(=N)N)NC(=O)[C@@H](NC(=O)[C@@H]2CCCN2C(=O)[C@H](CCCNC(=N)N)NC(=O)[C@H](CCCNC(=N)N)NC(=O)[C@H](Cc2c[nH]c3ccccc23)NC(=O)[C@@H](N)CCCNC(=N)N)[C@@H](C)CC)[C@@H](C)CC)C(=O)N[C@@H](CO)C(=O)N[C@@H](CO)C(=O)N1)C(C)C)C(=O)N[C@H](C(=O)N[C@@H](Cc1c[nH]c2ccccc12)C(N)=O)[C@@H](C)CC [hyP7B5Cys] (H-RWRRPIRRRPIRPPFWRKGKCSSCKGKRRVRWIIW-NH2; disulfide 21-24) | – | >102 | 102 | 0.6 (≈ 2.74 µg/mL) | 1 (≈ 4.57 µg/mL) | 2 (≈ 9.15 µg/mL) | 4
3 | CO[C@H]1/C=C/O[C@@]2(C)Oc3c(C)c(O)c4c(O)c(c(/C=N/N5CCN(C)CC5)c(O)c4c3C2=O)NC(=O)/C(C)=C\C=C\[C@H](C)[C@H](O)[C@@H](C)[C@@H](O)[C@@H](C)[C@H](OC(C)=O)[C@@H]1C [rifampicin] | 15 | – | – | – | – | – | –
4 | CN(C)c1cc(NC(=O)CNC(C)(C)C)c(O)c2c1C[C@H]1C[C@H]3[C@H](N(C)C)C(O)=C(C(N)=O)C(=O)[C@@]3(O)C(O)=C1C2=O [tigecycline] | 4 | – | – | – | – | – | –
5 | KIILRIRWR-NH2 [optP1] | – | 137 | 205 | 1 | 1.5 | 6 | –
6 | KIILRIRWRGGGVRKPPYLPRPRPRPL-NH2 [hyP1CoG1] | – | >62.8 | >157 | 1 | 2.5 | 1 | –
7 | KRRVRWIIW-NH2 [optP7] | – | >32.5 | >195 | 1.5 | 6 | 3 | 14
8 | KRRVRWIIWGGGVRKPPYLPRPRPRPL-NH2 [hyP7CoG2] | – | >30.8 | >154 | 2.5 | 5 | 2.5 | –
9 | RWRRPIRRRPIRPPFWR-NH2 [Bac5-v291] | – | >10.3 | >278 | 1.7 | 27 | 27 | 1.1
10 | RWRRPIRRRPIRPPFWRGGGKRRVRWIIW-NH2 [hyP7B5G] | – | 51 | 102 | 2 | 2 | 2 | –
11 | RWRRPIRRRPIRPPFWRKGKGKGKRRVRWIIW-NH2 [hyP7B5GK] | – | >120 | >120 | 1 | 1 | 2 | 4
12 | RWRRPIRRRPIRPPFWRKKKKRRVRWIIW-NH2 [hyP7B5K] | – | 41 | 82 | 2 | 2 | 2 | –
13 | VRKPPYLPRPRPRPL-NH2 [consP1] | – | – | >139 | 35 | >139 | >139 | –
14 | VRKPPYLPRPRPRPLGGGKIILRIRWR-NH2 [hyP1CoG2] | – | >62.8 | >157 | 1 | 2.5 | 2.5 | –
15 | VRKPPYLPRPRPRPLGGGKRRVRWIIW-NH2 [hyP7CoG1] | – | >30.8 | >154 | 1 | 5 | 5 | –
